Data set [1] relates to Guinea-pig isolated tracheal rings. Briefly: Guinea-pig isolated tracheal rings (spontaneous tone), relaxation. Also noted: species or system guinea-pigs. The following applies: Cavia porcellus, concentration producing 50% relaxation, isoprenaline 10^-6 M response = 100%, read-out: TRACHEAL RING EC50. Here is the method:
Guinea-pig isolated tracheal rings (spontaneaus tone)
Male guinea-pigs (400-500 g) were killed, and their tracheae were removed and cut into pairs of rings. The rings were then mounted in organ baths containing Krebs-Henseleit solution at 37°C and oxygenated with […] under 1 g resting tension (Allen et al., Br.J.Pharmacol.(1986),89,395). After a 1 hour stabilization period, responses to isoprenaline 10⁻⁶ M were obtained. Tissues were then washed and after a period for restabilization (20 min) the effects of test drugs and flosequinan were investigated by adding cumulative concentrations of these to the baths.
Responses were measured as the percentage of the relaxation response to isoprenaline 10⁻⁶ M. The concentration producing a 50% relaxation taking isoprenaline responses as 100% (EC₅₀) was calculated.

The test system of data set [2] is Guinea-pig isolated right ventricular strips. Briefly: Guinea-pig isolated right ventricular strips, increase in developed tension. Also noted: species or system guinea-pigs. The following applies: Cavia porcellus, stimulated at 1 Hz; for activation at 10 µM: percentage increase in developed tension at 10^-5 M, read-out: VENTRICULAR STRIP % at 10-5 M; for activation at 1 µM: percentage increase in developed tension at 10^-6M, read-out: VENTRICULAR STRIP % (10-6M). Here is the method: Guinea-pig isolated right ventricular strips
Male guinea-pigs of weight 400-500 g were killed, their hearts were removed and 2 ventricular preparations (ca 1 cm x 1 mm) cut from the right bide. There were then mounted in organ baths containing modified Krebs-Henseleit solution at 37°C and continually aereated with […]. The preparations were placed under 1 g resting tension and electrically stimulated to contract at 1 Hz whilst force of contraction was measured using an isometric force transducer (Gristwood and Owen, Br.J.Pharmacol. (1985),87,91P). Preparations were equilibrated for 60 min during which they were washed every 15 min with fresh buffer. Flosequinan and test compounds were added to the organ baths from 10^-6 to 10^-4 M concentrations and responses measured as percentage increases in developed tension.

In a further data set the test system is anaesthetized rats. Briefly: Vasodilator activity in anaesthetized rats (fall in mean blood pressure). Format: in vivo, Wistar rats. The following applies: Rattus norvegicus, iv; dose producing 30% fall in mean blood pressure; i.v. bolus injection; read-out: MAN BP IN THE ANAESTH. RAT ED30. As to the method: Vasodilator activity in anaesthetized rats
Male Wistar rats of weight range 300-400 g were anaesthetized with pentobarbital (60 mg/kg i.p.). The trachea was canulated to permit artificial respiration. A carotid artery and a jugular vein were cannulated to permit recording of mean arterial blood pressure and i.v. administration of drugs respectively.
Following a period of stabilisation (20 min), flosequinan or test drugs were administered by bolus injection and falls in mean blood pressure recorded. Responses were measured as the percentage fall in blood pressure over control, calculating the dose that produced an effect of 30% (ED₃₀).

Data set [3] deals with Conscious renal hypertensive beagle dogs. Briefly: Conscious renal hypertensive beagle dogs, fall in mean blood pressure after oral dosing. Format: in vivo. As to conditions: oral by gavage; for CONSC.HYPERT. DOG AUC (0-4h) at mg/kg po: dose not given; for CONSC.HYPERT. DOG AUC (0-4h) (1 mg/kg): 1 mg/kg po. Here is the method: Conscious renal hypertensive beagle dogs
Male beagle dogs were made hypertensive by the method of Page (J.Amer.Med.Assoc.(1939),113,2046). Two months later, these animals were prepared with exteriorized carotid loops (Gristwood et al., Br.J.Pharmacol. (1988),93,893) three weeks before using for experimentation. Animals were fasted 17 hours before administration of flosequinan or test compounds orally. Animals were then placed in restraints and allowed to settle for 1 hour. Mean blood pressure (MBP) was measured by puncturing the carotid loop with a 18G needle attached to a pressure transducer. Drugs (suspended in 1% methylcellulose + 0.05% Tween 80) were given orally by gavage at different doses, and mean blood pressure was measured over 4 hours using a polygraph. Drug responses were measured by calculating the area under the curve of percentage fall in mean blood pressure and time (units= % fall in MBP x hours) (Allen et al., J.Clin.Pharmacol.(1982),1S-23S).

Another data set has as its system male Swiss mice. Briefly: Acute toxicity in mice. Format: in vivo. The following applies: intraperitoneal, deaths after 48 hours, doses up to 300 mg/kg. Here is the method:
Acute toxicity of each compound was determined in groups of 5 male Swiss mice per dose. Administration of flosequinan and test compounds was made by the intraperitoneal route up the dose of 300 mg/kg. After 48 hours the number of deaths was noted and the dose producing 100% of deaths (LD₁₀₀) was calculated.

The conditions of data set [4]: Chemical Abstracts Vol. 71, 113122 a (1969); cited from earlier work.
The conditions of data set [5]: J. Het. Chem. 23, 1801 (1986); cited from earlier work.

Bounds are passed on as bounds.

`Cn1cc(NS(C)(=O)=O)c(=O)c2ccc(F)cc21` [Compound 6, 1-methyl-3-methylsulfonylamino-7-fluoro-4(1H)quinolone]: in data set [1], the EC50 (commonly the concentration that produces a half-maximal response) came to 360 nM. Also, in data set [2], the activation at 10 µM worked out at 86%. Further, the ED30 with anaesthetized rats worked out at 0.01 mg/kg. In data set [3], the “CONSC.HYPERT. DOG AUC (0-4h) at mg/kg po” value is 65 % fall in MBP x hours. In addition, the “LD100 IN MICE” value with male Swiss mice was more than 300 mg/kg ip.
In the case of `Cn1cc(NS(C)(=O)=O)c(=O)c2ccc(C(F)(F)F)cc21` [Compound 5], the EC50 in data set [1] is 420 nM. Besides, in data set [2], the activation at 1 µM turned out to be 35%. In the data set on anaesthetized rats, the ED30 came to 0.03 mg/kg. The “LD100 IN MICE” value in the data set on male Swiss mice is given as more than 300 mg/kg ip.
As for `Cn1cc([S+](C)[O-])c(=O)c2ccc(F)cc21` (centres unmarked) [FLOSEQUINAN, 7-fluoro-1-methyl-3-methylsulfinyl-4(1H)quinolone, reference compound], the EC50 in data set [1] came to 3000 nM. In data set [2] (percentage increase in developed tension at 10^-4M, read-out: VENTRICULAR STRIP % (10-4M)), the activation at 100 µM came out at 75%. Further, the ED30 in the data set with anaesthetized rats was 0.2 mg/kg. Further, the “CONSC.HYPERT. DOG AUC (0-4h) at mg/kg po” value in data set [3] is listed as 41 % fall in MBP x hours. For the same compound, the “LD100 IN MICE” value in the data set on male Swiss mice was 300 mg/kg ip.
Regarding `COc1ccc2c(c1)c(=O)c(NS(C)(=O)=O)cn2C` [Compound 11], the EC50 in data set [1] came out at 1600 nM. Also, in data set [2], the activation at 10 µM was 52%. Moreover, the ED30 with anaesthetized rats was determined as 0.05 mg/kg. Also, the “LD100 IN MICE” value in the data set with male Swiss mice was more than 300 mg/kg ip.
As to `Cn1cc(N)c(=O)c2ccccc21` [1-methyl-3-amino-4(1H)quinolone], in data set [4], the pharmacological activities result is listed as “no appreciable pharmacological activities”.
Regarding `Cn1cc(NS(C)(=O)=O)c(=O)c2ccc(Cl)cc21` [Compound 4, 1-methyl-3-methylsulfonylamino-7-chloro-4(1H)quinolone], the EC50 in data set [1] was found to be 500 nM. Besides, in data set [2], the activation at 1 µM was determined as 55%. For the same compound, the ED30 with anaesthetized rats worked out at 0.01 mg/kg. Also, the “CONSC.HYPERT. DOG AUC (0-4h) at mg/kg po” value in data set [3] was 68 % fall in MBP x hours. In the data set with male Swiss mice, the “LD100 IN MICE” value is given as more than 300 mg/kg ip.
`Cn1cc(NS(C)(=O)=O)c(=O)c2cc(F)ccc21` [Compound 3, 1-methyl-3-methylsulfonylamino-6-fluoro-4(1H)quinolone]: the EC50 in data set [1] amounted to 600 nM. For the same compound, the activation at 10 µM in data set [2] is 53%. For the same compound, in the data set with anaesthetized rats, the ED30 was 0.06 mg/kg. Besides, the “CONSC.HYPERT. DOG AUC (0-4h) (1 mg/kg)” value in data set [3] is 51 (1 mg/kg) % fall in MBP x hours. Also, the “LD100 IN MICE” value with male Swiss mice is more than 300 mg/kg ip.
Turning to `Cn1cc(NS(C)(=O)=O)c(=O)c2ccccc21` [Compound 1, 1-methyl-3-methylsulfonamido-4(1H) quinolone], the EC50 in data set [1] is 240 nM. The activation at 10 µM in data set [2] worked out at 82%. The ED30 in the data set on anaesthetized rats was found to be 0.02 mg/kg. Also, the “CONSC.HYPERT. DOG AUC (0-4h) (1 mg/kg)” value in data set [3] was 54 (1 mg/kg) % fall in MBP x hours. In addition, in the data set on male Swiss mice, the “LD100 IN MICE” value was more than 300 mg/kg ip.
For the compound `CCn1cc(NS(C)(=O)=O)c(=O)c2cc(F)c(Cl)cc21` [A], the antibacterial activity result in data set [5] is “does not exhibit any interesting antibacterial activity”.
